# Earlier results as cited in patent US7947714B2, “Piperidine glycine transporter inhibitors” (Merck, Sharp & Dohme Corp., priority 2005, dated 2011).
# Assays:
# [1] = high doses, oral, add-on to standard neuroleptic therapy
# [2] = patients suffering from schizophrenia, poorly responsive to antipsychotic drugs
# NMDA receptor = conditions: rat; blockade of GlyT1
# [3] = mice
smiles,measurement,setting,value
NCC(=O)O [glycine],effect on symptoms of schizophrenia,[1],improvement of the symptoms
CNCC(=O)O [sarcosine],"effect on positive, negative and cognitive symptoms of schizophrenia",[2],"beneficial effect was observed on positive, negative and cognitive symptoms"
"CN(CCC(Oc1ccc(-c2ccccc2)cc1)c1ccc(F)cc1)CC(=O)O (stereo not shown) [NFPS, (N-[3-(4′-fluorophenyl)-3-(4′-phenylphenoxy)propyl])sarcosine]",effect on NMDA receptor activity and NMDA receptor-dependent long-term potentiation,NMDA receptor,potentiates NMDA receptor activity and NMDA receptor-dependent long-term potentiation
same,effect on pre-pulse inhibition (measure of sensory gating),[3],enhance pre-pulse inhibition
